How the values were obtained:
[1] = test system: TCDD-mediated CYP1A1 gene induction; assay: CYP1A1 gene induction in HepG2 cells; assay type: cell-based, human
[2] = biological target: T1, p23 (Homo sapiens, UniProt Q15185); assay: Affinity chromatography on EGCG-conjugated Sepharose, in vitro translated p23; assay type: binding; conditions: 35S-p23 in vitro translated in RRL
T1 construct: made in house; host or cells: coupled transcription/translation in rabbit reticulocyte lysate (TNT, Promega), 35S-labelled
T1 sequence (Q15185 1-160): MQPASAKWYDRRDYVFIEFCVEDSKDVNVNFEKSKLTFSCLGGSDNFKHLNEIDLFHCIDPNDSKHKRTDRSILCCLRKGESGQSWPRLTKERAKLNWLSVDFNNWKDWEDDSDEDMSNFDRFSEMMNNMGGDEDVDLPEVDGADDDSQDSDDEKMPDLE
Description: Murine AhR and ARNT cDNA (obtained from J. Whitlock and O. Hankinson, respectively) were inserted into pcDNA3 (Invitrogen, Carlsbad, Calif.). Chicken hsp90 constructs (FIG. 5), c90711hsp (wild-type), c90G94D (wild-type point mutant gly94→Asp (Grenert et al., J. Biol. Chem. 272:23843-23850 (1997), which is hereby incorporated by reference in its entirety), c90D92A (wild-type point mutant Asp92→Ala (Sullivan et al., J. Biol. Chem. 268:20373-20379 (1993), which is hereby incorporated by reference in its entirety), c90N221 (wild-type truncation mutant encoding a.a. 221-728 (Sullivan et al., J. Biol. Chem. 268:20373-20379 (1993), which is hereby incorporated by reference in its entirety)), c90N303 (a.a. 303-728) and c90N538 (a.a. 538-728) were kind gifts from Dr. D. Toft (Rochester, Minn.). The C-terminal truncation mutant c900507 (a.a. 1-221) was obtained from Dr. L. Neckers (Rockville, Md.) (Grenert et al., J. Biol. Chem. 272:23843-23850 (1997); Marcu et al., J. Biol. Chem. 275:37181-37186 (2000), which are hereby incorporated by reference in their entirety). Human p23 cDNA was excised from pQE80-p23 (obtained from W. Chan Stockton, Calif.) by sequential digests using the restriction enzymes Sad (3′-end) and BamHI (5′-end) and inserted into the similarly digested pET28a (Novagen, Madison, Wis.). […]

With `O=C(O[C@@H]1Cc2c(O)cc(O)cc2O[C@@H]1c1cc(O)c(O)c(O)c1)c1cc(O)c(O)c(O)c1` [EGCG, epigallocatechin gallate] as the compound, how does the “inhibition of TCDD-mediated CYP1A1 gene induction” value [1] read?
The value was “inhibited TCDD-mediated CYP1A1 gene induction”.

And the “binding of p23 to immobilized EGCG” value [2]?
The value was “incapable of binding immobilized EGCG”.

— patent US20120165403A1, “METHODS OF INHIBITING THE ACTIVITY OF HSP90 AND/OR ARYL HYDROCARBON RECEPTOR” (UNIVERSITY OF ROCHESTER, priority 2004, published 2012)
